Measurements taken from patent US8334316B2, “Substituted organosulfur compounds and methods of using thereof” (ACEA Biosciences, Inc., priority 2004, dated 2012).
“And” between values parts separate entries of the source, which are not always exact repeats. Identical values can stand only once. Marks after values point to notes of the source that are not given here.

Tests used:
[1] = system: ao10/17 human ovarian cancer; assay: ao10/17 human ovarian cancer xenograft in nude mice (Example 4); assay type: in vivo; conditions: 10 mg/kg iv x7 qd; 7 D after transplantation
HCT-8 human colon cancer = HCT-8 human colon cancer xenograft in nude mice (Example 3); assay type: in vivo; conditions: for tumor inhibition rate %: vs solvent control
Excerpt: Both male and female mice were used. […] Test control. […] Preparation and Administration of Test Compounds. […] For human tumor xenograft model, all used materials, including animal food, animal cage, supporting materials and apparatus contacted by animals, were high-pressure sterilized. Nude mice were maintained in laminar flow shelves under SPF condition. After tumor transplantation, mouse weight and tumor size in each compound dosage group were dynamically monitored and plotted.

[2] = system: A549 human lung cancer cells; assay: Apoptosis: Annexin V-Cy3 / 6-CFDA staining of A549 cells; assay type: cell-based; conditions: 50 nM, 24 hrs
Description: The cells were incubated with the drugs for 24 hours and then washed 2× with PBS and 3× with binding buffer (10 mM HEPES, pH 7.5, 140 mM NaCl, 2.5 mM CaCl2). […] The cells were gently washed 3× in 1× binding buffer, mounted, viewed under immunofluorescent microscope and imaged using an attached CCD camera. Note that live cells show staining only with 6-CFDA (green), while necrotic cells will stain only with Annexin V-Cy3 (red). Cells starting the apoptotic process will stain both with AnnexinV-Cy3 and 6-CFDA.

mouse Lewis lung cancer = assay: In vivo antitumor efficacy, mouse Lewis lung cancer model, Example 3 (ACEA100108); conditions: for Inhibition rate (%): vs solvent control
Description: For human tumor xenograft models, cancer cells were passed twice in vivo before being transplanted into the nude mice for the study. Cultured human cancer cells in flask were first xenograft-transplanted in immunodeficient nude mice. After the cancer cells grew to a tumor of certain sizes in the nude mice, the tumor was removed form the nude mice and tumor tissues were dissected. The cell suspensions were prepared from the dissected tumor tissue and transplanted back to immunodeficient nude mice again (i.e. the second passage of cancer cells in human cancer xenograft-transplanted model). After the cancer cells grew to certain size, the tumor was removed from nude mice and the tumor tissues were dissected. The cell suspensions were prepared from dissected tissues and were used for the study of human cancer xenograft models described here.
Both male and female mice were used. However, for each experiment, animals of same sex were used. For the mouse transplanted tumor model, the numbers of animals tested were as follows: 10 for each dose group, 10 for positive control group and 20 for negative control group. For human tumor xenograft model, the numbers of animals tested were as follows: 6 for each dose group, 6 for positive control group and 12 for negative control group.
Test control. For negative control, each mouse was administered intravenously with the solvent only having the same volume and same concentration as those used in high dose ACEA100108 test, once a day, for 7 consecutive days. […] In a reference group, DBTS was administered intravenously at 50 mg/kg, once a day for 7 consecutive days.
Preparation and Administration of Test Compounds. […] Each time before use, this solution was diluted in normal saline to achieve desired ACEA100108 concentrations. Each mouse (about 20 g in weight) was administered intravenously with the compound solution of 0.5 mL at a controlled injection speed of 0.5 ml/0.5 min. 24 hrs after the tumor transplantation, intravenous injections of compound solutions into carrier mice were performed once a day, for consecutive 7 or 10 days.
Preparation of Tumor Cells for Transplantation and Determination of Compound Efficacy. To prepare the cancer cells for mouse Lewis lung cancer model, human breast cancer xenograft model and human colon cancer xenograft model, the fast growing tumors were first removed from the transplanted tumor mice. The tumor tissues were dissected and tumor cell suspensions were prepared in normal saline to have a concentration of 2-4×10^7 cells/ml. 0.2 ml of cell suspension was subcutaneously injected into the axillary region (right-side) of each mouse. […] Between two and four weeks after transplantation, mice were sacrificed and the transplanted tumors were removed from experimental mice.

[3] = system: purified bovine brain tubulin; assay: In vitro microtubule assembly assay with pure (MAP-free) tubulin, light scattering OD400; assay type: biochemical; conditions: all doses (especially prominent at 9 uM)
Description: Microtubule Assembly Assays. Microtubule seeds were synthesized by incubating purified bovine brain tubulin with 1 mM GTP, 10% glycerol and 10% DMSO at 35° C. for 30 minutes, followed by shearing by passing the assembled microtubules 6 times through a 27 gauge needle. Microtubule assembly was assayed by adding 27.5 ul of microtubule seeds to spectrophotometer cuvettes (maintained at 35° C.) containing 247.5 ul purified bovine brain tubulin in a PEM-100 buffer (100 mM Pipes pH=6.8, 1 mM […], 1 mM MgSO4) supplemented with 1 mM GTP (and drug where applicable) and monitoring the OD400 for 2 hours. Since the compounds are dissolved in DMSO and DMSO can have a significant effect on microtubule assembly, DMSO was added to all cuvettes so as to equal the largest volume of drug added to reactions. It should be noted that the initial velocity of the microtubule assembly reactions is so fast that one can not always catch the initial rise on the light scattering profile because it is occurring while samples are being prepared. However, all samples start at the same optical density, since they are identical with the exception of the drug being introduced.

[4] = 10 mg/kg/d iv x7 qd, 7 day after transplantation
[5] = 50 mg/kg/d iv x7 qd, 7 day after transplantation
[6] = 50 mg/kg/d iv x7 qd, 25 d (end), listed as ACEA100101

CC(=O)O[C@H]1C(=O)[C@@]2(C)[C@H]([C@H](OC(=O)c3ccccc3)[C@]3(O)C[C@H](OC(=O)[C@H](O)[C@@H](NC(=O)c4ccccc4)c4ccccc4)C(C)=C1C3(C)C)[C@]1(OC(C)=O)CO[C@@H]1C[C@@H]2O [Taxol, paclitaxel, reference compound]
Mice with palpable tumor / total mice [1]: 2/6 | TV inhibition rate % T/C (HCT-8 human colon cancer; 10 mg/kg/d iv x7 qd): 44.45% | Tumor weight (HCT-8 human colon cancer; 10 mg/kg/d iv x7 qd): 1.02 ± 0.11 g | Mice with palpable tumor / total mice (HCT-8 human colon cancer; [4]): 6/6†† | Tumor volume (cm^3) (HCT-8 human colon cancer; [4]): 0.01 cm^3 | Tumor volume (cm^3) (HCT-8 human colon cancer; 10 mg/kg/d iv x7 qd, 14 d): 0.116 ± 0.03 cm^3 | Tumor volume (cm^3) (HCT-8 human colon cancer; 10 mg/kg/d iv x7 qd, 25 d (end)): 0.694 cm^3 and 0.694 ± 0.15 cm^3 | tumor inhibition rate % (HCT-8 human colon cancer; 10 mg/kg/d iv x7 qd): 33.33% | Annexin V staining (apoptosis) [2]: strong staining of Annexin V | Animal weight (g) beginning (mouse Lewis lung cancer; 10 mg/kg/d iv x7 qd): 20.4 g | Animal weight (g) end (mouse Lewis lung cancer; 10 mg/kg/d iv x7 qd): 23.8 g | Tumor weight (mouse Lewis lung cancer; 10 mg/kg/d iv x7 qd): 1.52 ± 0.15 g | Inhibition rate (%) (mouse Lewis lung cancer; 10 mg/kg/d iv x7 qd): 43.91%

c1ccc(CSSSCc2ccccc2)cc1 [DBTS, Dibenzyl trisulfide]
Effect on extent of microtubule assembly [3]: inhibit the extent of microtubule assembly significantly | TV inhibition rate % T/C (HCT-8 human colon cancer; 50 mg/kg/d iv x7 qd): 32.17% | Tumor weight (HCT-8 human colon cancer; 50 mg/kg/d iv x7 qd): 0.825 ± 0.07 g | Mouse Body weight (HCT-8 human colon cancer; 50 mg/kg/d iv x7 qd, 0 Day (beginning), listed as ACEA100101): 18.2 g and 18.2 ± 1.2 g | Mouse Body weight (HCT-8 human colon cancer; 50 mg/kg/d iv x7 qd, 7 d): 18.8 ± 1 g | Mice with palpable tumor / total mice (HCT-8 human colon cancer; [5]): 4/6†† | Tumor volume (cm^3) (HCT-8 human colon cancer; [5]): 0.01 cm^3 | Mouse Body weight (HCT-8 human colon cancer; 50 mg/kg/d iv x7 qd, 14 d): 19.5 ± 1 g | Tumor volume (cm^3) (HCT-8 human colon cancer; 50 mg/kg/d iv x7 qd, 14 d): 0.031 ± 0.02 cm^3 | Mouse Body weight (HCT-8 human colon cancer; 50 mg/kg/d iv x7 qd, 21 d): 20.7 ± 0.8 g | Tumor volume (cm^3) (HCT-8 human colon cancer; 50 mg/kg/d iv x7 qd, 21 d): 0.204 ± 0.03 cm^3 | Mouse Body weight (HCT-8 human colon cancer; [6]): 23.0 g and 23 ± 1.3 g | Tumor volume (cm^3) (HCT-8 human colon cancer; [6]): 0.502 cm^3 and 0.502 ± 0.18 cm^3 | tumor inhibition rate % (HCT-8 human colon cancer; 50 mg/kg/d iv x7 qd): 46.08% | Animal No. beginning/end (survival) (mouse Lewis lung cancer; 25 mg/kg/d iv x7 qd): 10/10 | Animal weight (g) beginning (mouse Lewis lung cancer; 25 mg/kg/d iv x7 qd): 20.5 g | Animal weight (g) end (mouse Lewis lung cancer; 25 mg/kg/d iv x7 qd): 23.6 g | Tumor weight (mouse Lewis lung cancer; 25 mg/kg/d iv x7 qd): 1.14 ± 0.17 g | Inhibition rate (%) (mouse Lewis lung cancer; 25 mg/kg/d iv x7 qd): 57.93% | Animal No. beginning/end (survival) (mouse Lewis lung cancer; 100 mg/kg/d iv x7 qd): 10/6 | Animal weight (g) beginning (mouse Lewis lung cancer; 100 mg/kg/d iv x7 qd): 20.7 g | Animal weight (g) end (mouse Lewis lung cancer; 100 mg/kg/d iv x7 qd): 23.1 g | Tumor weight (mouse Lewis lung cancer; 100 mg/kg/d iv x7 qd (text: administered only 5 times because of toxicity)): 1.00 ± 0.15 g | Inhibition rate (%) (mouse Lewis lung cancer; 100 mg/kg/d iv x7 qd (text: only 5 times because of toxicity)): 63.10%
